Reference: publication PMC11375437, “Selective labelling of GBA2 in cells with fluorescent β-D-arabinofuranosyl cyclitol aziridines” (Chemical Science, 2024)

Biological target: T1, GBA2 (Homo sapiens, UniProt Q9HCG7)
T1 sequence (Q9HCG7 1-927): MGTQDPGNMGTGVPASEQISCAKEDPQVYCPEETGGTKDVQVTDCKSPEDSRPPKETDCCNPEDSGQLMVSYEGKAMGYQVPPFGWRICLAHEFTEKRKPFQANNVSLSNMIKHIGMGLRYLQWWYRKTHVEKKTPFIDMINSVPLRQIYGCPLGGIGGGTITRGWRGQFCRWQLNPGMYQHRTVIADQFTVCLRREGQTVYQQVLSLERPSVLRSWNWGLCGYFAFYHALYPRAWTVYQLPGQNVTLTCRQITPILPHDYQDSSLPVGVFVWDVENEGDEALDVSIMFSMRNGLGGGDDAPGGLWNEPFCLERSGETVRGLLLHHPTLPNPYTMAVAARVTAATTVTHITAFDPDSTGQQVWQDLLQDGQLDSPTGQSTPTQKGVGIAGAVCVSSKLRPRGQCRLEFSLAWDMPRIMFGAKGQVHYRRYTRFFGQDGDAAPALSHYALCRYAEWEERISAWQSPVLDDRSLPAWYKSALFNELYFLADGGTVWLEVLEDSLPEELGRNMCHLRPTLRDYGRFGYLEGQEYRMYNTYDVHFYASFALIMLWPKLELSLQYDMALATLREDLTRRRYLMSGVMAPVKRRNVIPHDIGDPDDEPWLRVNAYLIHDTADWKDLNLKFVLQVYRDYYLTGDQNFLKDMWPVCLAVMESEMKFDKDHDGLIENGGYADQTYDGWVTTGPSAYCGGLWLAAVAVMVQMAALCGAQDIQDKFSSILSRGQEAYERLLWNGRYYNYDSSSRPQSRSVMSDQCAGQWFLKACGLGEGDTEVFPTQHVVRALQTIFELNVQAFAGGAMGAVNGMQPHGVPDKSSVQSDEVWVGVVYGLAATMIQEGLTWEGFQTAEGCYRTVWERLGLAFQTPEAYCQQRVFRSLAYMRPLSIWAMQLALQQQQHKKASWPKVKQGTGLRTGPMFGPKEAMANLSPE
Test: Labelling kinetics of ABP 4 on GBA2 by SDS-PAGE
Format: biochemical
Design: expressed in transfected cells; host or cells: HEK293T GBA1/GBA2 KO (CRISPR/Cas9), GBA2 overexpressed
Details: HEK293T GBA1/2 KO, GBA2 OE lysate; pH 5.8; 37 °C
Experimental: To this end, lysates of HEK293T cells containing all β-glucosidases (endogenous GBA1 with overexpressed GBA2 and GBA3) were treated with ABPs 3, 4, 5 or 7, followed by protein separation by SDS-PAGE and fluorescence scanning of the wet gel slabs. […] In contrast, the β-D-Araf aziridine ABPs 3 and 4 selectively labelled GBA2 at a concentration of 100 nM, while Cy5 tagged ABP 5 did so at 500 nM. The GBA2 selectivity of β-D-Araf cyclitol aziridines 3, 4 and 5 was confirmed in a mixture of a lysate of overexpressed GBA2 cells spiked with 3 ng rhGBA1 (Fig. 2C and ESI Fig. S3 ^†). […] Therefore, only a combined inactivation rate constant (kinact) and binding constant (KI) ratio (kinact/KI) could be measured. […] Importantly, no labelling of GBA1 or GBA3 was detected under varying pH and time conditions (ESI Fig. S4-2 ^†).
Figure S4-1. […] A) Percentage of GBA2 labelling by ABP 4 (left graphs), data was quantified from three independent sets of fluorescent gels under the depicted conditions. […]
of inhibitors diluted in McIlvaine buffer (150 mM, pH 5.2) at 37 °C for 30 min or 3 h. […] After stopping the enzyme reaction with 200 μL 1 M NaOH-glycine (pH 10.3), 4-methylumbelliferone fluorescence was measured with a fluorimeter LS55 (Perkin Elmer, Waltham, MA, USA) with λEX 366 nm and λEM 445 nm. […]

## COc1ccc(C2=[N+]3C(=C(CCCCc4cn(CCCCCCCCN5[C@@H]6[C@H](CO)[C@@H](O)[C@H](O)[C@@H]65)nn4)c4ccc(-c5ccc(OC)cc5)n4[B-]3(F)F)C=C2)cc1 (stereo partly shown) [ABP 4]
  kinact/KI: 19200 M⁻¹ s⁻¹
